Results published in patent US20150105252A1, “SUBSTITUTED PYRAZOLES AS HERBICIDES” (E I DU PONT DE NEMOURS AND COMPANY, priority 2013, published 2015).

Columns and labels:
[1] = test system: crabgrass, Brazil; experiment: Test F postemergence; type: in vivo, Digitaria horizontalis; settings: scale 0 to 100
Description: Seeds of plant species selected from corn (Zea mays), soybean (Glycine max), velvetleaf (Abutilon theophrasti), lambsquarters (Chenopodium album), wild poinsettia (Euphorbia heterophylla), pigweed, palmer (palmer pigweed, Amaranthus palmeri), common waterhemp (Amaranthus rudis), surinam grass (Brachiaria decumbens), large crabgrass (Digitaria sanguinalis), crabgrass, Brazil (Brazilian crabgrass, Digitaria horizontalis), fall panicum (Panicum dichotomiflorum), giant foxtail (Setaria faberii), green foxtail (Setaria viridis), goosegrass (Eleusine indica), johnsongrass (Sorghum halepense), common ragweed (Ambrosia elation), barnyardgrass (Echinochloa crus-galli), southern sandbur (Cenchrus echinatus), arrowleaf sida (Sida rhombifolia), Italian ryegrass (Lolium multiflorum), dayflower, VA (Virginia (VA) dayflower, Commelina virginica), field bindweed (Convolvulus arvensis), cocklebur (common cocklebur, Xanthium strumarium), morningglory (Ipomoea coccinea), nightshade (eastern black nightshade, Solanum ptycanthum), kochia (Kochia scoparia), yellow nutsedge (Cyperus esculentus), and hairy beggarticks (Bidens pilosa), were planted into a silt loam soil and treated preemergence with test chemicals formulated in a non-phytotoxic solvent mixture which included a surfactant.
At the same time, plants from these crop and weed species and also horseweed (Canada horseweed, Conyza canadensis), smartweed (ladysthumb smartweed, Polygonum persicaria), waterhemp_RES1, (ALS & Triazine resistant common waterhemp, Amaranthus rudis), and waterhemp_RES2, (ALS & HPPD resistant common waterhemp, Amaranthus rudis) were treated with postemergence applications of test chemicals formulated in the same manner. Plants ranged in height from 2 to 18 cm for postemergence treatments (1- to 4-leaf stage). Treated plants and controls were maintained in a greenhouse for 14 to 21 days, after which time all species were compared to controls and visually evaluated. Plant response ratings, summarized in Table F, are based on a scale of 0 to 100 where 0 is no effect and 100 is complete control. A dash (-) response means no test result.

[2] = test system: Italian ryegrass; experiment: Test A preemergence; type: in vivo, Lolium multiflorum
Procedure, shortened: (§1)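 Growth medium: loam soil blended with sand. Preemergence treatment used a directed soil spray right after planting; postemergence treatment targeted seedlings at one to two leaves (2–10 cm height). Response was judged by eye relative to untreated plants about 10 days later on a 0–100 control scale.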

[3] = test system: common ragweed; experiment: Test A preemergence; type: in vivo, Ambrosia elation
Procedure, shortened: as §1

[4] = test system: oat, wild; experiment: Test D preemergence; type: in vivo, Avena fatua; settings: scale 0 to 100
Description: Seeds of plant species selected from bluegrass (annual bluegrass, Poa annua), blackgrass (Alopecurus myosuroides), canarygrass (littleseed canarygrass, Phalaris minor), chickweed (common chickweed, Stellaria media), galium (catchweed bedstraw, Galium aparine), bromegrass, downy (downy bromegrass, Bromus tectorum), field poppy (Papaver rhoeas), field violet (Viola arvensis), foxtail, green (green foxtail, Setaria viridis), deadnettle (henbit deadnettle, Lamium amplexicaule), ryegrass, Italian (Italian ryegrass, Lolium multiflorum), kochia (Kochia scoparia), lambsquarters (Chenopodium album), oilseed rape (Brassica napus), pigweed (redroot pigweed, Amaranthus retroflexus), chamomile (scentless chamomile, Matricaria inodora), speedwell (bird's-eye speedwell, Veronica persica), barley, spring (spring barley, Hordeum vulgare), wheat, spring (spring wheat, Triticum aestivum), buckwheat, wild (wild buckwheat, Polygonum convolvulus), mustard, wild (wild mustard, Sinapis arvensis), oat, wild (wild oat, Avena fatua), radish, wild (wild radish, Raphanus raphanistrum), windgrass (Apera spica-venti), Russian thistle (Salsola kali), barley, winter (winter barley, Hordeum vulgare), and wheat, winter (winter wheat, Triticum aestivum) were planted into a silt loam soil and treated preemergence with test chemicals formulated in a non-phytotoxic solvent mixture which included a surfactant.
At the same time, these species were planted in pots containing Redi-Earth® planting medium (Scotts Company, 14111 Scottslawn Road, Marysville, Ohio 43041) comprising spaghnum peat moss, vermiculite, wetting agent and starter nutrients and treated with postemergence applications of the test chemicals formulated in the same manner. Plants ranged in height from 2 to 18 cm (1- to 4-leaf stage). Treated plants and controls were maintained in a controlled growth environment for 14 to 21 days after which time all species were compared to controls and visually evaluated. Plant response ratings, summarized in Table D, are based on a scale of 0 to 100 where 0 is no effect and 100 is complete control. A dash (-) response means no test result.

[5] = test system: barnyardgrass; experiment: Test C flooded paddy test; type: in vivo, Echinochloa crus-galli; settings: Flood
Procedure, shortened: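 Visual injury ratings against untreated controls, taken 13 to 15 days after compound was added to paddy water standing 3 cm above the soil.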

[6] = 125 g ai/ha, visual injury, 0 to 100 scale, approx. 10 days
[7] = 500 g ai/ha, visual injury after approx. 10 days, 0 to 100 scale (0 no effect, 100 complete control)
[8] = 31 g ai/ha, scale 0 to 100 (0 no effect, 100 complete control)
[9] = 62 g ai/ha, scale 0 to 100 (0 no effect, 100 complete control)
[10] = 125 g ai/ha, scale 0 to 100 (0 no effect, 100 complete control)
[11] = 125 g ai/ha, visual injury approx. 10 days after treatment

Row | Structure (SMILES) | Plant response rating, Crabgrass, Brazil ([1]; Postemergence, 31 g ai/ha) | Plant response rating, Crabgrass, Brazil ([1]; Postemergence, 125 g ai/ha) | Plant response rating, Crabgrass, Brazil ([1]; Postemergence, 250 g ai/ha) | Plant response rating, Crabgrass, Brazil ([1]; postemergence, 62 g ai/ha) | Plant response rating, Crabgrass, Brazil ([1]; postemergence, 500 g ai/ha) | Plant response rating, Barnyardgrass [5, 8] | Plant response rating, Barnyardgrass [5, 9] | also measured
1 | CCc1cc(C(=O)NCC(F)(F)F)nn1Cc1ccnc(C(F)(F)F)c1 [Compound 78, 5-ethyl-N-(2,2,2-trifluoroethyl)-1-[[(2-trifluoromethyl)-4-pyridinyl]methyl]-1H-pyrazole-3-carboxamide] | 40 | 70 | 90 | 40 | 95 |  |  | 
2 | CCOc1cc(C(=O)NCC(F)(F)F)nn1Cc1ccnc(C(F)(F)F)c1 [Compound 104] | 40 | 60 | 90 | 50 | 95 |  |  | 
3 | CCCc1cc(C(=O)NCC(F)(F)F)nn1Cc1ccnc(C(F)(F)F)c1 [Compound 105] | 30 | 50 | 70 | 35 | 90 |  |  | 
4 | CCONC(=O)c1cc(CC)n(Cc2cc(C(F)(F)F)no2)n1 [Compound 125] |  |  |  |  |  |  |  | Italian Ryegrass plant response rating [2, 6]: 20; Italian Ryegrass plant response rating [2, 7]: 100; Common Ragweed plant response rating [3, 6]: 50; Common Ragweed plant response rating [3, 7]: 90
5 | CCOc1cc(C(=O)NC2CC2)nn1Cc1ccnc(OC(F)F)c1 [Compound 133] |  |  |  |  |  |  |  | Italian Ryegrass plant response rating [2, 6]: 40; Italian Ryegrass plant response rating [2, 7]: 90; Common Ragweed plant response rating [3, 6]: 80; Common Ragweed plant response rating [3, 7]: 90
6 | CCCc1cc(C(=O)NCC(F)(F)F)nn1Cc1cc(C(F)(F)F)nn1C [Compound 138] |  |  |  |  |  |  |  | Plant response rating, Oat, Wild ([4]; 62 g ai/ha): 35; Plant response rating, Oat, Wild ([4]; 125 g ai/ha): 75; Plant response rating, Oat, Wild ([4]; 250 g ai/ha): 100
7 | CCCNC(=O)c1cc(CCCl)n(Cc2ccnc(C(F)(F)F)c2)n1 [Compound 145] |  |  |  |  |  | 0 | 0 | Plant response rating, Barnyardgrass ([5]; 125 g ai/ha, scale 0 to 100): 30; Plant response rating, Barnyardgrass ([5]; 250 g ai/ha, scale 0 to 100): 40
8 | CCOc1cc(C(=O)NC(C)C)nn1Cc1ccnc(C(F)(F)F)c1 [Compound 188] | 20 | 75 | 90 | 30 | 95 |  |  | Plant response rating, Oat, Wild ([4]; 62 g ai/ha): 100; Plant response rating, Oat, Wild ([4]; 125 g ai/ha): 100; Plant response rating, Oat, Wild ([4]; 250 g ai/ha): 100
9 | CCOc1cc(C(=O)NC2CC2)nn1Cc1ccnc(C(F)(F)F)c1 [Compound 189] |  |  |  |  |  |  |  | Plant response rating, Oat, Wild ([4]; 62 g ai/ha): 45; Plant response rating, Oat, Wild ([4]; 125 g ai/ha): 75; Plant response rating, Oat, Wild ([4]; 250 g ai/ha): 100
10 | CCONC(=O)c1cc(OCC)n(Cc2ccnc(C(F)(F)F)c2)n1 [Compound 195] |  |  |  |  |  | 0 | 30 | Plant response rating, Barnyardgrass [5, 10]: 40; Plant response rating, Barnyardgrass ([5]; 250 g ai/ha, scale 0 to 100): 45
11 | CCc1cc(C(=O)NC2CC2)nn1Cc1ccnc(OCC(F)(F)F)c1 [Compound 200] |  |  |  |  |  | 0 | 0 | Plant response rating, Barnyardgrass [5, 10]: 20; Plant response rating, Barnyardgrass ([5]; 250 g ai/ha, scale 0 to 100): 40
12 | CCc1cc(C(=O)NCC(F)(F)F)nn1Cc1cc(OC(F)F)nn1C [Compound 206] |  |  |  |  |  |  |  | Italian Ryegrass plant response rating (0 to 100 scale) [2, 11]: 0; Italian Ryegrass plant response rating [2, 7]: 20; Common Ragweed plant response rating (0 to 100 scale) [3, 11]: 0; Common Ragweed plant response rating [3, 7]: 40
13 | CCc1cc(C(=O)NC2CC2)nn1Cc1cc(C(F)(F)C(F)(F)F)nn1C [Compound 226] |  |  |  |  |  | 0 | 0 | Plant response rating, Barnyardgrass [5, 10]: 0
